{
  "source": "patent US6495588B2",
  "about": "“Scytonemin and methods of using thereof” (The Regents of the University of California, priority 2000, dated 2002)",
  "key": {"[1]": {"tested_on": "RTX-induced mouse ear edema", "test": "Resiniferatoxin (RTX)-induced mouse ear edema assay", "type": "in vivo", "conditions": "systemic", "description": "Various dilutions of test compounds were topically applied in acetone to the inside and outside surfaces of the left ears of mice in a solution comprising 0.1 μg RTX or 250 μg CAP per ear. A control, acetone, was applied to all right ears. After a 30 minute incubation, the mice were sacrificed, the ears removed, and bores taken and weighed.\nFor systemic studies, the test compounds were administered by intraperitoneal injection in a vehicle comprising 20% propylene glycol, 80% saline and 3 drops TWEEN-20 30 minutes or 1 hour prior to topical application of RTX or CAP. Control animals were injected with vehicle only. 0.1 μg RTX or 250 μg CAP was applied to the left ears and acetone was applied to the right ears. After 30 minutes of incubation, the mice were scarified, ears removed and bores taken and weighed.\nEdema was measured by subtracting the weight of the right ear (control) from the weight of the left ear. The results were recorded as % decrease (inhibition) or % increase (potentiation) in edema relative to the control group edema."}, "[2]": {"tested_on": "PMA-induced mouse ear edema", "test": "PMA-induced mouse ear edema assay", "type": "in vivo", "conditions": "topical application", "description": "The efficacy of a scytoneman compound as an anti-inflammatory agent may be established by the following assay. The scytoneman compound is topically applied in acetone to the inside pinnae of the ears of mice in a solution comprising an irritant such as the edema-causing irritant, Phorbol 12-myristate 13-acetate (PMA). Specifically, 2 μg/ear of PMA alone or in combination with 50 μg/ear of the test compound, scytonemin, was applied to the left ears (5 mice per treatment group) and acetone was applied to all right ears. After 3 hours, 20 minutes incubation, the mice were sacrificed, the ears removed and bores taken and weighed. Edema was measured by subtracting the weight of the right ear (acetone control) from the weight of the left ear (treated). Results were recorded as % decrease (inhibition) or % increase (potentiation) in edema relative to the PMA control group edema."}},
  "data": [
    {"substance": "scytonemin", "values": [
      {"measurement": "inhibition of topical RTX-induced mouse ear edema", "setting": "[1]; 25 mg/kg", "value": 15, "unit": "%"},
      {"measurement": "inhibition of topical RTX-induced mouse ear edema", "setting": "[1]; 50 mg/kg", "value": 18, "unit": "%"},
      {"measurement": "inhibition of topical RTX-induced mouse ear edema", "setting": "[1]; 150 mg/kg", "value": 47, "unit": "%"},
      {"measurement": "ED50 PMA-induced mouse ear edema and tissue myeloperoxidase activity", "setting": "[2]", "value": "about 10.9±5 μg per ear"}
    ]}
  ]
}
